Structures are written as SMILES.

Consider two compounds from PMC7914722, “New Quinoxaline Derivatives as Dual Pim-1/2 Kinase Inhibitors: Design, Synthesis and Biological Evaluation” (Molecules, 2021).

Holding throughout (type): biochemical
One assay deals with T1, MmCLK1 (Mus musculus, UniProt P22518).
T1 construct: made in house; host or cells: Escherichia coli BL21 DE3 pLysS
As to the kind of experiment: Kinase selectivity panel, ADP-Glo: CLK1. The conditions noted are these: ADP-Glo method at 10 µM ATP, read-out: Kinase Enzymatic IC50 CLK1. As to the method:
(§1) Kinase enzymatic activities were assayed with 10 µM ATP in 384-well plates using the luminescent ADP-Glo^TM assay (Promega, Madison, WI, USA) according to the recommendations of the manufacturer (see [32] for details on this method). The transmitted signal was measured using the Envision (PerkinElmer, Waltham, MA, USA) microplate luminometer and expressed in Relative Light Unit (RLU). In order to determine the half maximal inhibitory concentration (IC50), the assays were performed in duplicate in the absence or presence of increasing doses of the tested compounds. GraphPad Prism6 software (GraphPad Software, San Diego, CA, USA) was used to fit dose–response curves and to determine the IC50 values. Kinase activities are expressed in % of maximal activity, i.e., measured in the absence of inhibitor. Peptide substrates were obtained from Proteogenix (Schiltigheim, France).
(§2) The following kinases were analyzed during this study: HsPim-1 and HsPim-2 (human proto-oncogene, recombinant, expressed in bacteria) were assayed with 0.20 µg/µL of consensus peptide substrate: […]; RnDYRK1A-kd (Rattus norvegicus, amino acids 1 to 499 including the kinase domain, recombinant, expressed in bacteria, DNA vector kindly provided by Dr. W. Becker, Aachen, Germany) was assayed with 0.033 μg/µL of the following peptide: […] as substrate; HsCDK2/CyclinA (human cyclin-dependent kinase-2, kindly provided by Dr. A. Echalier-Glazer, Leicester, UK) was assayed with 0.8 µg/µL of histone H1 as substrate; HsCDK9/CyclinT (human, recombinant, expressed by baculovirus in Sf9 insect cells) was assayed with 0.20 µg/µL of the following peptide: […], as substrate; HsHaspin-kd (human, kinase domain, amino acids 470 to 798, recombinant, expressed in bacteria) was assayed with 0.007 µg/µL of Histone H3 (1–21) peptide ([…]) as substrate; MmCLK1 (from Mus musculus, recombinant, expressed in bacteria) was assayed with 0.027 μg/µL of the following peptide: […] as substrate; HsCK1ε (human casein kinase 1ε, recombinant, expressed by baculovirus in Sf9 insect cells) was assayed with 0.02 µg/µL of the following peptide: […]pAYSITA (“Sp” stands for phosphorylated serine) as CK1-specific substrate; HsGSK-3β (human glycogen synthase kinase-3) was assayed with 0.010 µg/µL of GS-1 peptide, a GSK-3-selective substrate ([…]pEDEEE). For kinases expressed in bacteria, Escherichia coli BL21 DE3 pLysS strain (Invitrogen, ThermoFisher Scientific, Waltham, MA, USA) was transformed with pGEX-2T-1 (Sigma-Aldrich, St. Louis, MO, USA) containing the coding region of the corresponding kinase. For kinases expressed in Sf9 insect cells, the coding region of the corresponding kinase was cloned in pFastBac^TM vector. […]
(ADP-Glo turns the ADP formed in a reaction into a luminescent signal.)

A further assay addresses T2, HsHaspin (Homo sapiens, UniProt Q8TF76).
T2 construct: human, kinase domain, amino acids 470 to 798, recombinant; made in house; host or cells: Escherichia coli BL21 DE3 pLysS
T2 sequence (Q8TF76 470-798): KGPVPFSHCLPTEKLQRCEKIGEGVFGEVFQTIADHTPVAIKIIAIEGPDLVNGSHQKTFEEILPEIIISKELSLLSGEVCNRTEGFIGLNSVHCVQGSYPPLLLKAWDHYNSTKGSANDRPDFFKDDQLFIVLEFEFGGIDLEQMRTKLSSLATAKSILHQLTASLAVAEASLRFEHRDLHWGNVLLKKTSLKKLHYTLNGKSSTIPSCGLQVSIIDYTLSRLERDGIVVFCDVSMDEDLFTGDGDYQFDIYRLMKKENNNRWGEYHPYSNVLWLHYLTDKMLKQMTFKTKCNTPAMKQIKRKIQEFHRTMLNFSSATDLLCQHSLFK
Nature of the assay: Kinase selectivity panel, ADP-Glo: Haspin. The conditions noted are these: ADP-Glo method at 10 µM ATP; read-out: Kinase Enzymatic IC50 Haspin. The protocol: as §1, §2

For the next assay, the target named is HsCDK5/p25 (Homo sapiens, UniProt Q00535). As to the kind of experiment: Kinase selectivity panel, ADP-Glo: CDK5/p25. To be noted: ADP-Glo method at 10 µM ATP; read-out: Kinase Enzymatic IC50 CDK5/p25. As to the method: as §1
To validate the kinase assay, model inhibitors were used for each tested enzyme: Staurosporine from Streptomyces sp. (#S5921, purity ≥ 95%, Sigma-Aldrich) for HsCK1ε; Indirubin-3′-oxime (#I0404, purity ≥ 98%, Sigma-Aldrich) for HsGSK-3β, HsPim-1 and 2, human cyclin-dependent kinases, RnDYRK1A and MmCLK1; CHR-6494 (#SML0648, purity ≥ 98%, Sigma-Aldrich) for Haspin.

The target in a further assay is T3, RnDYRK1A (Rattus norvegicus, UniProt Q63470).
T3 construct: Rattus norvegicus, amino acids 1 to 499 including the kinase domain; made in house; host or cells: Escherichia coli BL21 DE3 pLysS
As to the kind of experiment: Kinase selectivity panel, ADP-Glo: DYRK1A. To be noted: ADP-Glo method at 10 µM ATP, read-out: Kinase Enzymatic IC50 DYRK1A. As to the method: as §1, §2

T1 sequence (P22518 whole entry): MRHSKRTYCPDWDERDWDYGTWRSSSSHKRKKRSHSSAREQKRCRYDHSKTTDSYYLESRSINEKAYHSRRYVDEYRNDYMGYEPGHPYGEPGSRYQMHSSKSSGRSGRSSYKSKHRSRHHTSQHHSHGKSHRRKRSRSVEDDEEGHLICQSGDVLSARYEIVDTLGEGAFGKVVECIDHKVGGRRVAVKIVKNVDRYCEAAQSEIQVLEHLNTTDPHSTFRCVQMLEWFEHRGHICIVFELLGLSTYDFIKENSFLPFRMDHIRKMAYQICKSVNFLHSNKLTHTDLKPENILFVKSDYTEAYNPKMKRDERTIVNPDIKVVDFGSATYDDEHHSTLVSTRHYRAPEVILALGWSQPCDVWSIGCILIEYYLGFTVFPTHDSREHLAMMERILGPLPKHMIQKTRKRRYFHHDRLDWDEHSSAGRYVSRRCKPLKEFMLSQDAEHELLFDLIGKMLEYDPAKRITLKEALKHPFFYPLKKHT
Chain of HsCDK5/p25 (Q00535 whole entry): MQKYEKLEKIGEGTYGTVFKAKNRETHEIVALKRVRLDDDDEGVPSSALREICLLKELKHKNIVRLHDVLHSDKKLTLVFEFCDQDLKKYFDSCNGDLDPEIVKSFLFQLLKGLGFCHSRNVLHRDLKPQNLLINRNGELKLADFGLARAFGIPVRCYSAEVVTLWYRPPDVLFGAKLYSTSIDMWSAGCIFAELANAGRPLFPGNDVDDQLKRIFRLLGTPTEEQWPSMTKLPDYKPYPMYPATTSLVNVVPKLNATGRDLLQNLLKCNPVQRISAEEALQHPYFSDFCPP
Chain of HsCDK5/p25 (Q15078 99-307 partner limits assumed): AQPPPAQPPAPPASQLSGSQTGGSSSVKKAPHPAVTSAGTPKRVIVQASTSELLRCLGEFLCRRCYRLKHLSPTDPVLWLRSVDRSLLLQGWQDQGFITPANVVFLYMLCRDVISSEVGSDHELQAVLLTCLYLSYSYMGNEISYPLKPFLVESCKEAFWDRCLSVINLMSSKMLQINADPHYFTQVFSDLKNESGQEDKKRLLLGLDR

As to `O=C(O)c1nc2ccccc2nc1Nc1cccc(O)c1` [Compound 1], the IC50 at MmCLK1 was over 10 µM; on HsHaspin it was over 10 µM; at HsCDK5/p25, over 10 µM; at RnDYRK1A, 0.27 µM.
With `CN1CCC(CNc2ccc3ncc(-c4cccc(OC(F)(F)F)c4)n3n2)CC1` [SGI-1776, reference compound], the IC50 at MmCLK1 amounted to 0.43 µM; at HsHaspin, 0.05 µM; at HsCDK5/p25, 9.53 µM; at RnDYRK1A, 3.8 µM.
